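Five compound concentrations were applied to cells in 96-well plates for 48 hours; endpoints were derived by simple linear interpolation of the resulting dose-response curve. GI50 marks 50% less growth.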 Calls of active or inactive are those of the source. Cut-off read from the data, not from the text of the source: active = GI50 up to about 1.1 µM and inactive = higher.
Columns and labels:
Experiment in all cases: inhibition of tumour cell growth, NCI panel, 48 h
[1] = tested on: SK-MEL-2
[2] = tested on: LOX IMVI
[3] = tested on: CAKI-1
[4] = tested on: OVCAR-8
[5] = tested on: HT-29
[6] = tested on: IGROV-1
[7] = tested on: EKVX
[8] = tested on: SK-MEL-28
[9] = tested on: SF-539
[10] = tested on: KM-20L2
[11] = tested on: K562
[12] = tested on: HL-60
[13] = tested on: RXF 393
[14] = tested on: A549
[15] = tested on: MCF7
[16] = tested on: NCI/ADR-RES
[17] = tested on: SR

Measured: GI50

COc1ccccc1NC(=O)C1=C(C)NC(C)=C(C(=O)Nc2ccccc2OC)C1c1ccc(N(C)C)cc1
inactive: [1] 19.7 µM | [2] 15.4 µM | [3] 23.2 µM | [4] 24 µM | [5] 45.4 µM | [6] 33.4 µM | [7] 27.4 µM | [8] 22.6 µM | [9] 37.5 µM | [10] 23.7 µM | [11] 18.9 µM | [12] 15.8 µM | [13] 21.7 µM | [14] 42.6 µM

O=P(NCCCO)(OCc1ccccc1)N(CCCl)CCCl (stereo unspecified)
inactive: [1] > 100 µM | [2] > 100 µM | [3] > 100 µM | [4] > 100 µM | [15] > 100 µM | [5] > 100 µM | [6] > 74.5 µM | [8] > 100 µM | [9] > 100 µM | [10] > 100 µM | [11] > 100 µM | [12] > 100 µM | [13] > 100 µM | [16] > 100 µM | [14] > 100 µM

COC(=O)C(=Cc1cc(OC)c(OC)c(OC)c1-c1cc2c(cc1C(C)=O)OCO2)C(=O)OC
inactive: [1] 32.4 µM | [2] 30.8 µM | [3] 54.3 µM | [4] 59 µM | [5] 40.6 µM | [6] 50.1 µM | [17] 50.4 µM | [7] 72.8 µM | [8] 33.1 µM | [9] 43.8 µM | [10] 34.3 µM | [11] 37.6 µM | [12] 34.2 µM | [13] 33.7 µM | [14] 55.6 µM

O=C1[C@H]2ON(c3ccccc3)C(c3ccc([N+](=O)[O-])cc3)[C@H]2C(=O)N1c1ccc(Cc2ccc(N3C(=O)[C@@H]4ON(c5ccccc5)C(c5ccc([N+](=O)[O-])cc5)[C@@H]4C3=O)cc2)cc1 (stereo partly specified)
inactive: [1] > 100 µM | [2] > 100 µM | [3] 26.1 µM | [4] > 100 µM | [5] > 100 µM | [6] > 100 µM | [7] > 100 µM | [8] > 100 µM | [9] > 100 µM | [10] > 100 µM | [11] > 100 µM | [12] > 100 µM | [13] > 100 µM | [14] > 100 µM

O=C(C(O)c1cn(Cc2ccccc2)c2ccccc12)N1CCCCC1 (stereo unspecified)
inactive: [1] > 100 µM | [2] > 100 µM | [4] > 100 µM | [5] > 100 µM | [6] 30.4 µM | [17] > 100 µM | [7] 54.6 µM | [8] > 10 µM | [9] > 100 µM | [10] 38.8 µM | [11] 30.2 µM | [12] > 100 µM | [13] > 10 µM | [14] 45 µM

CC(=O)NNc1nc(C)c(C(=O)NNC(=O)C(=O)Nc2c(C)cccc2C(C)C)s1
inactive: [1] > 100 µM | [2] 55.5 µM | [4] 94.2 µM | [5] > 100 µM | [6] > 100 µM | [17] 40 µM | [7] > 100 µM | [8] > 100 µM | [9] 95.9 µM | [10] > 100 µM | [11] 46.7 µM | [12] 46.7 µM | [14] 61 µM

NC(=O)N/N=C/C(/C=N/NC(N)=O)[N+](=O)[O-]
inactive: [1] > 100 µM | [2] > 100 µM | [3] > 100 µM | [5] > 100 µM | [6] > 100 µM | [7] > 100 µM | [8] > 100 µM | [9] > 100 µM | [10] > 100 µM | [11] > 100 µM | [12] > 100 µM | [13] > 100 µM | [14] > 100 µM

CC1(c2ccc[n+](Cc3ccccc3)c2)OCCO1
inactive: [1] > 100 µM | [2] > 100 µM | [3] > 100 µM | [4] > 100 µM | [5] > 100 µM | [6] > 100 µM | [17] > 100 µM | [7] > 100 µM | [9] > 100 µM | [10] > 100 µM | [11] > 100 µM | [12] > 100 µM | [13] > 100 µM | [14] > 100 µM

Cc1ccccc1NC(=O)c1c(C)oc2c1C(=O)c1ccccc1C2=O
inactive: [1] 30.5 µM | [2] 16 µM | [3] > 80.7 µM | [4] 41.5 µM | [5] 35.9 µM | [6] > 71.9 µM | [17] 26.1 µM | [7] > 72.6 µM | [8] 27.5 µM | [9] 25.9 µM | [10] 65.5 µM | [11] 22.4 µM | [12] 19.8 µM | [13] > 100 µM | [14] 32.7 µM

CCCN(CCCC(NC(C)=O)C(=O)NCc1ccccc1)C(=O)NCCCl (stereo unspecified)
inactive: [1] > 100 µM | [3] > 100 µM | [4] > 100 µM | [5] > 100 µM | [6] > 100 µM | [17] > 100 µM | [7] > 100 µM | [8] > 100 µM | [9] > 100 µM | [10] > 100 µM | [11] > 100 µM | [12] > 100 µM | [13] > 100 µM | [14] > 100 µM

COC(=O)C1=CO[C@@H](OC2CC(CO)C(O)C(O)C2O)[C@@H]2[C@@H](C)[C@@H](OC(=O)/C=C/c3ccccc3)[C@@H](O)[C@H]12.COC(=O)C1=CO[C@@H](OC2CC(CO)C(O)C(O)C2O)[C@@H]2[C@@H](C)[C@@H](OC(=O)c3ccccc3)[C@@H](O)[C@H]12 (stereo partly specified)
inactive: [2] > 100 µM | [3] > 100 µM | [4] > 100 µM | [5] > 100 µM | [6] > 100 µM | [17] 66.7 µM | [7] > 100 µM | [8] > 100 µM | [9] > 100 µM | [10] > 100 µM | [11] > 100 µM | [12] > 100 µM | [14] > 100 µM

O=C(Cc1cc[n+]([O-])cc1)C(=O)Nc1cc(Cl)c(Cl)cc1Cl
inactive: [1] > 100 µM | [4] > 100 µM | [6] > 100 µM | [7] > 100 µM | [8] > 100 µM | [9] > 100 µM | [10] > 100 µM | [11] > 100 µM | [12] > 100 µM | [13] > 100 µM | [14] > 100 µM

O=C1C=C(Nc2ccc(S(=O)(=O)Nc3ncccn3)cc2)c2ccccc2C1=O
inactive: [1] 18.4 µM | [2] 15.8 µM | [3] 32.1 µM | [4] 20.2 µM | [5] 22.6 µM | [6] 26.5 µM | [17] 8.53 µM | [7] 24.7 µM | [8] 26 µM | [9] 27.3 µM | [10] 28.7 µM | [11] 15.6 µM | [12] 25.4 µM | [13] 23.3 µM | [14] 25.3 µM

CCCNC1=C(C(=O)OCC)C(=O)CO1
inactive: [1] > 100 µM | [2] > 100 µM | [3] > 100 µM | [4] > 100 µM | [5] > 100 µM | [6] > 100 µM | [17] > 100 µM | [7] > 100 µM | [8] > 100 µM | [9] > 100 µM | [10] > 100 µM | [11] > 100 µM | [12] > 100 µM | [13] > 100 µM | [14] > 100 µM

CCOC(=O)c1ccn2c(c1)c(C#N)c1nc3ccccc3nc12
inactive: [1] > 100 µM | [2] 29.2 µM | [3] 54.5 µM | [4] 32.1 µM | [6] 5.4 µM | [17] 32.6 µM | [7] 70.6 µM | [8] > 100 µM | [9] > 100 µM | [10] 71.9 µM | [11] 33.9 µM | [12] 38.8 µM | [14] 50.1 µM

O=C1NC(=S)NC(=O)C1=CC1CC1
inactive: [1] > 100 µM | [2] > 100 µM | [3] > 100 µM | [4] > 100 µM | [5] > 100 µM | [6] > 100 µM | [17] > 100 µM | [7] > 100 µM | [8] > 100 µM | [9] > 100 µM | [10] > 100 µM | [11] > 100 µM | [12] > 100 µM | [13] > 100 µM | [14] > 100 µM

CCOC(=O)C1=C(OC(OCC)C(C)[Se]c2ccccc2)CCC1 (stereo unspecified)
inactive: [1] > 100 µM | [2] 7.21 µM | [3] 51.1 µM | [4] 16 µM | [5] 28.1 µM | [6] 26.4 µM | [17] 6.4 µM | [7] 21.6 µM | [8] 22.6 µM | [9] 17.5 µM | [10] 29.2 µM | [11] 42.8 µM | [12] 4.16 µM | [13] 15.7 µM | [14] 49.9 µM

Cc1ccc(C(=O)C(C)N)cc1C (stereo unspecified)
inactive: [1] > 100 µM | [2] > 100 µM | [3] > 100 µM | [4] > 100 µM | [5] > 100 µM | [6] > 100 µM | [7] > 100 µM | [8] > 100 µM | [9] > 100 µM | [10] > 100 µM | [11] > 100 µM | [13] > 100 µM | [14] > 100 µM
